Data reported in patent US5776903A, “Peptide derivatives usable as zinc endopeptidase 24-15 inhibitors” (Commissariat A l'Energie Atomique, priority 1995, dated 1998).
pKi: −log10 of the molar value.

What was measured:
endopeptidase 24-16 = endopeptidase 24-16 (Homo sapiens, UniProt Q9BYT8); test: Inhibition of neurotensin degradation by purified endopeptidase 24-16 (HPLC), inhibition constant Ki; type: biochemical; settings: neurotensin 20 μmole/l, 1 hour at 30° C., tris-HCl pH 7.5
Protocol: This example studies the inhibiting effect of the peptides of the invention with respect to endopeptidase 24-16.
To this end, incubation takes place for 1 hour at 30° C. of 2 nmole (20 μmole/l) of neurotensin, which is a known endopeptidase 24-16 substrate with 8 μg of endopeptidase 24-16 purified in a final volume of 100 μl of tris-HCl buffer, 50 mM, pH 7.5, in the absence of peptide (control) or in the presence of the peptide tested at concentrations from 10^-11 to 10^-7 mole/l. After 1 hour of incubation analysis takes place of the solutions by HPLC and the inhibition constant Ki of the tested peptide is determined.

endopeptidase 24-15 = endopeptidase 24-15 (Rattus norvegicus, UniProt P24155); test: Inhibition of neurotensin degradation by purified endopeptidase 24-15 (HPLC), inhibition constant Ki; settings: for SELECTIVITY (ratio Ki24-16 /Ki24-15): selectivity relative to endopeptidase 24-16
endopeptidase 24-15, sequence (P24155 whole entry): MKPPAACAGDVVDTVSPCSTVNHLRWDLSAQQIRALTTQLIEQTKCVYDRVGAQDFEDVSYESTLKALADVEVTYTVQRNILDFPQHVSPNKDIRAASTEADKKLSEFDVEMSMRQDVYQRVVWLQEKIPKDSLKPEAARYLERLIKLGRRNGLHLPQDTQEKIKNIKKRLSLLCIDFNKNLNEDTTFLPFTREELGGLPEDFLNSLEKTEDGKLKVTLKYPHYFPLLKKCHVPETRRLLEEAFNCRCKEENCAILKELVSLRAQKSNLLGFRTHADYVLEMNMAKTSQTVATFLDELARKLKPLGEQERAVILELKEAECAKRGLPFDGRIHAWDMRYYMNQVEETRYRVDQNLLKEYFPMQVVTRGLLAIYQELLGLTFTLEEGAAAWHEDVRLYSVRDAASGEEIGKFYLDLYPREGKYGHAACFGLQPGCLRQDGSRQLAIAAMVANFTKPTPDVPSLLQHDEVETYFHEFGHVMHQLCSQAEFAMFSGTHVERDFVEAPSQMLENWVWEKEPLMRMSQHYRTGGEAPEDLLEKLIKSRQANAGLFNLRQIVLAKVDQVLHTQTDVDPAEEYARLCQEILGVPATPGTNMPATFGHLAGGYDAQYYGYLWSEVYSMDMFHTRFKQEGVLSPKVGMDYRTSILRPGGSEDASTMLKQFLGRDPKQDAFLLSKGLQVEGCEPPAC
Protocol: Incubation takes place for 1 hour at 37° C. of 2 nmole (20 μmole/l) of neurotensin, which is a known endopeptidase 24-15 substrate, with 7 μg of purified endopeptidase 24-15 in a final volume of 100 μl of tris-HCl buffer, 50 nM, pH 7.5, in the absence of an inhibitor (control) or in the presence of the peptide tested at concentrations from 10^-11 to 10^-7 mole/l. After 1 hour incubation analysis takes place of the solutions by HPLC. On the basis of this analysis the inhibition constant Ki of the tested peptide is determined.

endopeptidase 24-16, sequence (Q9BYT8 38-704): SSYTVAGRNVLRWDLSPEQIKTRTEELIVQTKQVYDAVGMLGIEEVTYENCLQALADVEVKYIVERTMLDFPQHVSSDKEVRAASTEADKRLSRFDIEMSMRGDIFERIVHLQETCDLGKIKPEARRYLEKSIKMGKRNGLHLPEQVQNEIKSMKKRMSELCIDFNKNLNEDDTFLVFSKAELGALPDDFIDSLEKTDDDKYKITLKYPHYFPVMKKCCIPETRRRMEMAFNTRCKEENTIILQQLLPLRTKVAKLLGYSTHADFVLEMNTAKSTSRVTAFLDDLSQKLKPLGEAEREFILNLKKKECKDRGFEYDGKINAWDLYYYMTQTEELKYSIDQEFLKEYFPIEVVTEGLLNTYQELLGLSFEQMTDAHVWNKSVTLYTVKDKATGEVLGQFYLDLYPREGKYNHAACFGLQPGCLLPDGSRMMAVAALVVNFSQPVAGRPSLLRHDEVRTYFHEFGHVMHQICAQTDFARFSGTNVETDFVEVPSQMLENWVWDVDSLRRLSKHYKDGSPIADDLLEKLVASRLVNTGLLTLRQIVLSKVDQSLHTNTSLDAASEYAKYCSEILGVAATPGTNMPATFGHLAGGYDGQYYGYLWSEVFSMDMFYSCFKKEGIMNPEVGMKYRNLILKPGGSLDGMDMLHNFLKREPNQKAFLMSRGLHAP

Structure (SMILES) | pKi (endopeptidase 24-16) | pKi (endopeptidase 24-15) | SELECTIVITY (ratio Ki24-16 /Ki24-15) (endopeptidase 24-15)
CSCC[C@H](NC(=O)[C@H](CCCNC(=N)N)NC(=O)CCP(=O)(O)C(Cc1ccccc1)NC(=O)OCc1ccccc1)C(=O)O (mixture of isomers) [compound 1, Z--Phe .PSI. (PO2 CH2)Gly--Arg--Met] | 6.88 | 9.46 | 377
CCCC[C@H](NC(=O)[C@H](CCCNC(=N)N)NC(=O)CCP(=O)(O)C(Cc1ccccc1)NC(=O)OCc1ccccc1)C(=O)O (mixture of isomers) [compound 2, Z--Phe .PSI. (PO2 CH2)Gly--Arg--Nle] | 6.67 | 8.80 | 135
C[C@H](NC(=O)[C@H](CCCNC(=N)N)NC(=O)CCP(=O)(O)C(Cc1ccccc1)NC(=O)OCc1ccccc1)C(=O)O (mixture of isomers) [compound 3, Z--Phe .PSI. (PO2 CH2)Gly--Arg--Ala] | 6.70 | 8.66 | 91
N=C(N)NCCC[C@H](NC(=O)CCP(=O)(O)C(Cc1ccccc1)NC(=O)OCc1ccccc1)C(=O)N[C@@H](Cc1ccccc1)C(=O)O (mixture of isomers) [compound 4, Z--Phe .PSI. (PO2 CH2)Gly--Arg--Phe] | 5.96 | 8.57 | 409
N=C(N)NCCC[C@H](NC(=O)CCP(=O)(O)C(Cc1ccccc1)NC(=O)OCc1ccccc1)C(=O)N[C@@H](Cc1ccc(O)cc1)C(=O)O (mixture of isomers) [compound 5, Z--Phe .PSI. (PO2 CH2)Gly--Arg--Tyr] | 6.22 | 8.44 | 165
CC(C)C[C@H](NC(=O)[C@H](CCCNC(=N)N)NC(=O)CCP(=O)(O)C(Cc1ccccc1)NC(=O)OCc1ccccc1)C(=O)O (mixture of isomers) [compound 6, Z--Phe .PSI. (PO2 CH2)Gly--Arg--Leu] | 6.07 | 8.30 | 169
N=C(N)NCCC[C@H](NC(=O)CCP(=O)(O)C(Cc1ccccc1)NC(=O)OCc1ccccc1)C(=O)N[C@@H](CCC(N)=O)C(=O)O (mixture of isomers) [compound 7, Z--Phe .PSI. (PO2 CH2)Gly--Arg--Gln] | 6.16 | 8.21 | 113
CC(C)[C@H](NC(=O)[C@H](CCCNC(=N)N)NC(=O)CCP(=O)(O)C(Cc1ccccc1)NC(=O)OCc1ccccc1)C(=O)O (mixture of isomers) [compound 8, Z--Phe .PSI. (PO2 CH2)Gly--Arg--Val] | 5.95 | 8.03 | 121
CC[C@H](C)[C@H](NC(=O)[C@H](CCCNC(=N)N)NC(=O)CCP(=O)(O)C(Cc1ccccc1)NC(=O)OCc1ccccc1)C(=O)O (mixture of isomers) [compound 9, Z--Phe .PSI. (PO2 CH2)Gly--Arg--Ile] | 6.23 | 8.02 | 61
N=C(N)NCCC[C@H](NC(=O)CCP(=O)(O)C(Cc1ccccc1)NC(=O)OCc1ccccc1)C(=O)N[C@@H](Cc1c[nH]c2ccccc12)C(=O)O (mixture of isomers) [compound 10, Z--Phe .PSI. (PO2 CH2)Gly--Arg--Trp] | 5.57 | 7.88 | 203
N=C(N)NCCC[C@H](NC(=O)CCP(=O)(O)C(Cc1ccccc1)NC(=O)OCc1ccccc1)C(=O)NCC(=O)O (mixture of isomers) [compound 11, Z--Phe .PSI. (PO2 CH2)Gly--Arg--Gly] | 5.78 | 7.86 | 120
N=C(N)NCCC[C@H](NC(=O)[C@H](CCCNC(=N)N)NC(=O)CCP(=O)(O)C(Cc1ccccc1)NC(=O)OCc1ccccc1)C(=O)O (mixture of isomers) [compound 12, Z--Phe .PSI. (PO2 CH2)Gly--Arg--Arg] | 5.69 | 7.85 | 145
N=C(N)NCCC[C@H](NC(=O)CCP(=O)(O)C(Cc1ccccc1)NC(=O)OCc1ccccc1)C(=O)N[C@@H](CC(N)=O)C(=O)O (mixture of isomers) [compound 13, Z--Phe .PSI. (PO2 CH2)Gly--Arg--Asn] | 5.86 | 7.71 | 71
N=C(N)NCCC[C@H](NC(=O)CCP(=O)(O)C(Cc1ccccc1)NC(=O)OCc1ccccc1)C(=O)N[C@@H](Cc1c[nH]cn1)C(=O)O (mixture of isomers) [compound 14, Z--Phe .PSI. (PO2 CH2)Gly--Arg--His] | 5.52 | 7.63 | 129
C[C@@H](O)[C@H](NC(=O)[C@H](CCCNC(=N)N)NC(=O)CCP(=O)(O)C(Cc1ccccc1)NC(=O)OCc1ccccc1)C(=O)O (mixture of isomers) [compound 17, Z--Phe .PSI. (PO2 CH2)Gly--Arg--Thr] | 5.44 | 7.45 | 103
N=C(N)NCCC[C@H](NC(=O)CCP(=O)(O)C(Cc1ccccc1)NC(=O)OCc1ccccc1)C(=O)N[C@@H](CCCCN)C(=O)O (mixture of isomers) [compound 18, Z--Phe .PSI. (PO2 CH2)Gly--Arg--Lys] | 4.59 | 6.86 | 186
N=C(N)NCCC[C@H](NC(=O)CCP(=O)(O)C(Cc1ccccc1)NC(=O)OCc1ccccc1)C(=O)N[C@@H](CCC(=O)O)C(=O)O (mixture of isomers) [compound 19, Z--Phe .PSI. (PO2 CH2)Gly--Arg--Glu] | 5.09 | 6.79 | 50

Structure (SMILES) | pKi (endopeptidase 24-16) | pKi (endopeptidase 24-15) | SELECTIVITY (ratio Ki24-16 /Ki24-15) (endopeptidase 24-15)
N=C(N)NCCC[C@H](NC(=O)CCP(=O)(O)C(Cc1ccccc1)NC(=O)OCc1ccccc1)C(=O)N[C@@H](CC(=O)O)C(=O)O (mixture of isomers) [compound 20, Z--Phe .PSI. (PO2 CH2)Gly--Arg--Asp] | 4.69 | 6.45 | 58
N=C(N)NCCC[C@H](NC(=O)CCP(=O)(O)C(Cc1ccccc1)NC(=O)OCc1ccccc1)C(=O)N1CCC[C@H]1C(=O)O (mixture of isomers) [compound 21, Z--Phe .PSI. (PO2 CH2)Gly--Arg--Pro] | 4.44 | 5.45 | 10
CSCC[C@H](NC(=O)[C@H](CCCCN)NC(=O)C(C)CP(=O)(O)C(Cc1ccccc1)NC(=O)OCc1ccccc1)C(=O)O (mixture of isomers) [compound 22, Z--Phe .PSI. (PO2 CH2)Ala--Lys--Met] | 6.65 | 9.94 | 1957
CC(CP(=O)(O)C(Cc1ccccc1)NC(=O)OCc1ccccc1)C(=O)N[C@@H](CCCCN)C(=O)N[C@@H](CCC(N)=O)C(=O)O (mixture of isomers) [compound 28, Z--Phe .PSI. (PO2 CH2)Ala--Lys--Gln] |  | 8.66 | 
CC(CP(=O)(O)C(Cc1ccccc1)NC(=O)OCc1ccccc1)C(=O)N[C@@H](CCCCN)C(=O)N[C@@H](Cc1ccc(O)cc1)C(=O)O (mixture of isomers) [compound 29, Z--Phe .PSI. (PO2 CH2)Ala--Lys--Tyr] |  | 8.64 | 
CC(CP(=O)(O)C(Cc1ccccc1)NC(=O)OCc1ccccc1)C(=O)N[C@@H](CCCCN)C(=O)N[C@H](C(=O)O)C(C)C (mixture of isomers) [compound 30, Z--Phe .PSI. (PO2 CH2)Ala--Lys--Val] |  | 8.59 | 
CC(CP(=O)(O)C(Cc1ccccc1)NC(=O)OCc1ccccc1)C(=O)N[C@@H](CCCCN)C(=O)N[C@@H](CCCNC(=N)N)C(=O)O (mixture of isomers) [compound 31, Z--Phe .PSI. (PO2 CH2)Ala--Lys--Arg] |  | 8.50 | 
CC(CP(=O)(O)C(Cc1ccccc1)NC(=O)OCc1ccccc1)C(=O)N[C@@H](CCCCN)C(=O)N[C@@H](CC(N)=O)C(=O)O (mixture of isomers) [compound 32, Z--Phe .PSI. (PO2 CH2)Ala--Lys--Asn] |  | 8.31 | 
CC(CP(=O)(O)C(Cc1ccccc1)NC(=O)OCc1ccccc1)C(=O)N[C@@H](CCCCN)C(=O)NCC(=O)O (mixture of isomers) [compound 33, Z--Phe .PSI. (PO2 CH2)Ala--Lys--Gly] |  | 8.29 | 
CC(CP(=O)(O)C(Cc1ccccc1)NC(=O)OCc1ccccc1)C(=O)N[C@@H](CCCCN)C(=O)N[C@@H](Cc1c[nH]c2ccccc12)C(=O)O (mixture of isomers) [compound 34, Z--Phe .PSI. (PO2 CH2)Ala--Lys--Trp] |  | 8.24 | 
CC(CP(=O)(O)C(Cc1ccccc1)NC(=O)OCc1ccccc1)C(=O)N[C@@H](CCCCN)C(=O)N[C@@H](Cc1c[nH]cn1)C(=O)O (mixture of isomers) [compound 35, Z--Phe .PSI. (PO2 CH2)Ala--Lys--His] |  | 8.15 | 
CC(CP(=O)(O)C(Cc1ccccc1)NC(=O)OCc1ccccc1)C(=O)N[C@@H](CCCCN)C(=O)N[C@H](C(=O)O)[C@@H](C)O (mixture of isomers) [compound 36, Z--Phe .PSI. (PO2 CH2)Ala--Lys--Thr] |  | 8.00 | 
CC(CP(=O)(O)C(Cc1ccccc1)NC(=O)OCc1ccccc1)C(=O)N[C@@H](CCCCN)C(=O)N[C@@H](CO)C(=O)O (mixture of isomers) [compound 37, Z--Phe .PSI. (PO2 CH2)Ala--Lys--Ser] |  | 7.92 | 
CC(CP(=O)(O)C(Cc1ccccc1)NC(=O)OCc1ccccc1)C(=O)N[C@@H](CCCCN)C(=O)N[C@@H](CCCCN)C(=O)O (mixture of isomers) [compound 38, Z--Phe .PSI. (PO2 CH2)ASla--Lys--Lys] |  | 7.57 | 
CC(CP(=O)(O)C(Cc1ccccc1)NC(=O)OCc1ccccc1)C(=O)N[C@@H](CCCCN)C(=O)N[C@@H](CCC(=O)O)C(=O)O (mixture of isomers) [compound 39, Z--Phe .PSI. (PO2 CH2)Ala--Lys--Glu] |  | 7.27 | 
CC(CP(=O)(O)C(Cc1ccccc1)NC(=O)OCc1ccccc1)C(=O)N[C@@H](CCCCN)C(=O)N[C@@H](CC(=O)O)C(=O)O (mixture of isomers) [compound 40, Z--Phe .PSI. (PO2 CH2)Ala--Lys--Asp] |  | 6.96 | 
CC(CP(=O)(O)C(Cc1ccccc1)NC(=O)OCc1ccccc1)C(=O)N[C@@H](CCCCN)C(=O)N1CCC[C@H]1C(=O)O (mixture of isomers) [compound 41, Z--Phe .PSI. (PO2 CH2)Ala--Lys--Pro] |  | 5.99 | 
